Laboratory results published in US20100197657A1, “2-ARYL OR HETEROARYL INDOLE DERIVATIVES” (priority 2007, published 2010).
Blank lines part the entries; values can stand above or below the compound they belong to.

What was measured:
[1] = test system: ASIC; conditions: cited from earlier work; for inhibition of ASIC current: Psalmotoxin-1 selective for ASIC1, APETx2 selective for ASIC3
[2] = target: T1, human ASIC1 (Homo sapiens, UniProt P78348); test: In vitro assay for ASIC activity, whole-cell patch clamp, hASIC1 cell line; format: cell-based
T1 construct: expressed in transfected cells; host or cells: HEK293
T1 sequence (P78348 1-528): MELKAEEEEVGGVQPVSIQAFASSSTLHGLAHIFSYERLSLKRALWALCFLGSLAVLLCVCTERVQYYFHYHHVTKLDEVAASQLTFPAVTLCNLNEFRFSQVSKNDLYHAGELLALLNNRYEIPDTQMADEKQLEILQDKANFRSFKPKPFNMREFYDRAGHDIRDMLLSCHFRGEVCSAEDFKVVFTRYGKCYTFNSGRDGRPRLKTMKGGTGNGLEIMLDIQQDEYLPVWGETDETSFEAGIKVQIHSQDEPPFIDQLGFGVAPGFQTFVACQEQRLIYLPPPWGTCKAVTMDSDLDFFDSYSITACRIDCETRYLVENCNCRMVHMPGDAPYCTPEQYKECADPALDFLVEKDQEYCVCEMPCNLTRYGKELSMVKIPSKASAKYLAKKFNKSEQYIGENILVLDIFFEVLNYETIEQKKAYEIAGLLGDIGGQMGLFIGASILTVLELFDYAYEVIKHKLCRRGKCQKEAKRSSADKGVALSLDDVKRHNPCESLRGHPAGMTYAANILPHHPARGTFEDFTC
Protocol: Cell Preparation: Human embryonic kidney cells (HEK293) stably expressing the human ASIC ion channel, are grown to 70-90% confluence in T75 cell culture flasks. Cells are lifted by removing the growth media and incubating with 3 ml of warmed (37° C.) 50/50 Trypsin/Dulbecco's Solution (GIBCO, USA) for 4-6 minutes. 7 ml of pH7.4_HBS (see Solutions and Drugs) is then added to block Trypsin activity. The cell suspension is placed into a 10 ml centrifuge tube and centrifuged for 1 minute @ 150×G. After centrifugation, the supernatant is aspirated and the cell pellet is re-suspended in 2-5 ml of pH7.4_HBS for a final cell density of ˜0.6×10^6 cells/ml. For whole-cell patch clamp, approximately 1000 cells are placed in a recording chamber containing standard bath solution for electrophysiological recording. […]
Electrophysiological recording: Patch clamp recording pipettes were pulled from borosilicate glass and typically had 2-4 MOhm resistances. Whole cell currents were recorded with a patch clamp amplifier (Multiclamp 700B, Axon Instruments Inc). […] After a stable ASIC current was determined, inhibition of acid evoked current was determined by multiple applications of increasing concentrations (3-fold dilution) of compound. Inhibition of current was expressed as percent inhibition vs. baseline current. […] IC50s were determined using the Hill Equation.

[3] = target: T2, human ASIC3 (Homo sapiens, UniProt Q9UHC3); test: In vitro assay for ASIC activity, whole-cell patch clamp, hASIC3 cell line; format: cell-based; conditions: for inhibition at 10 µM: percent inhibition vs. baseline current, read-out: levels of inhibition of acid-evoked ASIC current; for inhibition of human ASIC3 current with increasing concentrations (FIG. 1): increasing concentrations of compound; for inhibition of inward current evoked by pH5.5 in the hASIC3 cell line: pre-application of 300 nM; for block of inward current evoked by pH5.5 in the hASIC3 cell line: pre-application of 10 μM
T2 construct: expressed in transfected cells; host or cells: HEK293
T2 sequence (Q9UHC3 1-531): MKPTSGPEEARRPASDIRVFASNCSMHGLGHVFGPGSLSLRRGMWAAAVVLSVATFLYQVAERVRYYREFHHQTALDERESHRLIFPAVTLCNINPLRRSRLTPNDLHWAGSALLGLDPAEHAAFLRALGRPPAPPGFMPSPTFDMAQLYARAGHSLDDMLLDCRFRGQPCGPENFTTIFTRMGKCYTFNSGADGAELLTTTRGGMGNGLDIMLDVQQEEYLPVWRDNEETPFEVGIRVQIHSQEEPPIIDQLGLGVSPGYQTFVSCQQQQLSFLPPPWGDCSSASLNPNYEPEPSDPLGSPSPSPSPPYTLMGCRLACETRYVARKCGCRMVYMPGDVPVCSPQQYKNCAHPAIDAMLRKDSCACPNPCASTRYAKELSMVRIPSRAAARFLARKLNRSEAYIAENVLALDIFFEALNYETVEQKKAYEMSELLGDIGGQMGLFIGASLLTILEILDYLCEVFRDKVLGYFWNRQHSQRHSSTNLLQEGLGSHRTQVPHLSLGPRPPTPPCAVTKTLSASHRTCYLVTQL
Protocol: Cell Preparation: Human embryonic kidney cells (HEK293) stably expressing the human ASIC ion channel, are grown to 70-90% confluence in T75 cell culture flasks. Cells are lifted by removing the growth media and incubating with 3 ml of warmed (37° C.) 50/50 Trypsin/Dulbecco's Solution (GIBCO, USA) for 4-6 minutes. 7 ml of pH7.4_HBS (see Solutions and Drugs) is then added to block Trypsin activity. The cell suspension is placed into a 10 ml centrifuge tube and centrifuged for 1 minute @ 150×G. After centrifugation, the supernatant is aspirated and the cell pellet is re-suspended in 2-5 ml of pH7.4_HBS for a final cell density of ˜0.6×10^6 cells/ml. For whole-cell patch clamp, approximately 1000 cells are placed in a recording chamber containing standard bath solution for electrophysiological recording.
Solutions and Drugs: The intracellular solution contains (mM): 119 K-gluconate, 15 KCl, 3.2 MgCl2, 5 EGTA, 5 HEPES, 5 K2ATP, pH 7.3. The standard bath solution (pH7.4_HBS) contains (mM): 150 NaCl, 5 KCl, 2 CaCl2, 1 MgCl2, 10 HEPES, 12 Dextrose, pH 7.4. The acid-activation bath solution (pH5.5_MBS) contains (mM): 150 NaCl, 5 KCl, 2 CaCl2, 1 MgCl2, 10 MES, 12 Dextrose, pH 5.5. Test compounds were prepared as 2 or 10 mM stock solutions in DMSO and diluted in either pH7.4_HBS or pH5.5_MBS to final concentration.
Electrophysiological recording: Patch clamp recording pipettes were pulled from borosilicate glass and typically had 2-4 MOhm resistances. Whole cell currents were recorded with a patch clamp amplifier (Multiclamp 700B, Axon Instruments Inc). Holding and test potential was −60 mV. Control and compound solutions perfused the vicinity of the cell with flow controlled by computer-operated solenoid valves. 10-90% solution exchange typically took <20 ms. After establishment of whole cell configuration, cells were perfused with pH7.4_HBS. Baseline ASIC current was determined by application of pH5.5_MBS at two minute intervals. After a stable ASIC current was determined, inhibition of acid evoked current was determined by multiple applications of increasing concentrations (3-fold dilution) of compound. Inhibition of current was expressed as percent inhibition vs. baseline current. A minimum of three independent determinations at each concentration of compound was used for each data point. IC50s were determined using the Hill Equation.

Compound: CC(C)C1c2cc(C3CC3c3ccc4cc(C(=N)N)ccc4c3)ccc2CCN1C (stereo not shown) [A-317567]
- increase in potency vs. amiloride ([1]; in vivo and in vitro assays): > 10 fold

- inhibition of proton-evoked current in HEK cells expressing human ASIC1 (FIG. 2) ([2]; HEK cells, human ASIC1): inhibits proton-evoked current
- inhibition of proton-evoked current in HEK cells expressing human ASIC3 (FIG. 2) ([3]; HEK cells, human ASIC3): inhibits proton-evoked current
- inhibition at 10 µM [3]: > 20%
- inhibition of human ASIC3 current with increasing concentrations (FIG. 1) [3]: dose dependent inhibition
Compound: N=C(N)c1ccc2[nH]c(-c3cc(Cl)cc(Cl)c3)cc2c1 [EXAMPLE 1, 2-(3,5-Dichlorophenyl)-1H-indole-5-carboximidamide]
- inhibition of inward current evoked by pH6.5 in the hASIC1 cell line ([2]; pre-application of 300 nM, pH6.5): inhibits a large fraction of this current
- inhibition of inward current evoked by pH5.5 in the hASIC3 cell line [3]: inhibits the majority of the proton-evoked current

- block of inward current evoked by pH5.5 in the hASIC3 cell line [3]: did not block the proton-evoked current
Compound: N=C(N)c1ccc2[nH]c(-c3cccc(CO)c3)cc2c1 [EXAMPLE 2]

- block of inward current evoked by pH5.5 in the hASIC3 cell line [3]: blocked the proton-evoked current
Compound: N=C(N)c1ccc2[nH]c(-c3cc(Cl)cc(Br)c3)cc2c1 [EXAMPLE 3]

- inhibition of human ASIC3 current with increasing concentrations (FIG. 1) [3]: dose dependent inhibition
- inhibition of inward current evoked by pH5.5 in the hASIC3 cell line [3]: inhibited the proton-evoked current
Compound: N=C(N)c1ccc2[nH]c(-c3cc(Br)cc(Br)c3)cc2c1 [EXAMPLE 4]

- inhibition at 10 µM [3]: > 20%
Compound: N=C(Nc1ccccc1)c1ccc2[nH]c(-c3cc(Cl)cc(Cl)c3)cc2c1 [compound 21, 2-(3,5-dichlorophenyl)-N-phenyl-1H-indole-5-carboximidamide]

- inhibition at 10 µM [3]: > 20%
Compound: NCc1ccc2[nH]c(-c3ccccc3)c(CN)c2c1 [compound 28, (2-Phenyl-1H-indole-3,5-diyl)dimethanamine]

- inhibition at 10 µM [3]: > 20%
Compound: NCc1ccc2[nH]c(-c3cc(Cl)nc(Cl)c3)cc2c1 [compound 50, 1-[2-(2,6-Dichloropyridin-4-yl)-1H-indol-5-yl]methanamine]

Compound: APETx2
- inhibition of ASIC current [1]: inhibit ASIC current at nM concentrations

Compound: Psalmotoxin-1 (EDCIPKWKGCVNRHGDCCEGLECWKRRRSFEVCVPKTPKT; Pi-theraphotoxin-Pc1a; UniProt P60514 1-40, looked up)
- inhibition of ASIC current [1]: inhibit ASIC current at nM concentrations
